Experimental data as given in PubChem BioAssay AID2060487 (Molecular Pharmacology Branch, DTP, NCI, 2025).

Tested on: 997537-175-T-J1-PDC complex spheroid viability
Test: Anticancer human tumor 997537-175-T-J1-PDC patient-derived colon adenocarcinoma cell line growth inhibition [GQUAD]
Settings: for IC50: curve of first compound; for viability, T/C: stronger effect = lower value
In short: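 Tumor cells were grown as complex spheroids with HUVEC endothelial cells and mesenchymal stem cells as stroma. G-quadruplex stabilizers were combined with targeted agents over half-log dilutions from near the clinical Cmax, or from 10 microM.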

[1] = second compound 0.0316 µM, first compound 0.0316 µM
[2] = second compound 0.0316 µM, first compound 0.316 µM
[3] = second compound 0.1 µM, first compound 0.0316 µM
[4] = second compound 0.1 µM, first compound 0.316 µM
[5] = second compound 0.316 µM, first compound 0.0316 µM
[6] = second compound 0.316 µM, first compound 0.316 µM
[7] = second compound 1 µM, first compound 0.0316 µM
[8] = second compound 1 µM, first compound 0.316 µM
[9] = second compound 3.16 µM, first compound 0.0316 µM
[10] = second compound 3.16 µM, first compound 0.316 µM
[11] = second compound 10 µM, first compound 0.0316 µM
[12] = second compound 10 µM, first compound 0.316 µM
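Further: spheroids exposed to the agents for 7 days.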
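Wherever viability, T/C is given: 100% = DMSO vehicle control viability.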

`CCc1c2c(nc3ccc(O)cc13)-c1cc3c(c(=O)n1C2)COC(=O)[C@]3(O)CC` + Cc1cnc(CNC(=O)c2c(=O)c3ccc(N4CCCN(C)CC4)nc3n3c2sc2ccccc23)cn1 gave an IC50 (second compound 0.0316 µM) of 8.07 nM, an IC50 (second compound 0.1 µM) of 11.8 nM and an IC50 (second compound 0.316 µM) of 11.4 nM. The IC50 (second compound 1 µM) was 7.52 nM, the IC50 (second compound 3.16 µM) was 13.3 nM and the IC50 (second compound 10 µM) was 12.7 nM. The viability, T/C (second compound 0.0316 µM, first compound 0.000999 µM) was 101%, the viability, T/C (second compound 0.0316 µM, first compound 0.00316 µM) was 70.3% and the viability, T/C (second compound 0.0316 µM, first compound 0.00999 µM) was 50.2%. It also gave a viability, T/C [1] of 17.3%, a viability, T/C (second compound 0.0316 µM, first compound 0.0999 µM) of 6.2% and a viability, T/C [2] of 2.76%. For the same molecule, the viability, T/C (second compound 0.1 µM, first compound 0.000999 µM) was 95.2%, the viability, T/C (second compound 0.1 µM, first compound 0.00316 µM) was 85.8% and the viability, T/C (second compound 0.1 µM, first compound 0.00999 µM) was 57%. It also gave a viability, T/C [3] of 13.7%, a viability, T/C (second compound 0.1 µM, first compound 0.0999 µM) of 8.95% and a viability, T/C [4] of 3.1%. The viability, T/C (second compound 0.316 µM, first compound 0.000999 µM) was 101%, the viability, T/C (second compound 0.316 µM, first compound 0.00316 µM) was 73.4% and the viability, T/C (second compound 0.316 µM, first compound 0.00999 µM) was 63.1%. It also gave a viability, T/C [5] of 15.6%, a viability, T/C (second compound 0.316 µM, first compound 0.0999 µM) of 10% and a viability, T/C [6] of 3.09%. For the same molecule, the viability, T/C (second compound 1 µM, first compound 0.000999 µM) was 109%, the viability, T/C (second compound 1 µM, first compound 0.00316 µM) was 69.2% and the viability, T/C (second compound 1 µM, first compound 0.00999 µM) was 42.1%. For the same molecule, the viability, T/C [7] was 28.1%, the viability, T/C (second compound 1 µM, first compound 0.0999 µM) was 9.78% and the viability, T/C [8] was 2.05%. It also gave a viability, T/C (second compound 3.16 µM, first compound 0.000999 µM) of 91.8%, a viability, T/C (second compound 3.16 µM, first compound 0.00316 µM) of 80.2% and a viability, T/C (second compound 3.16 µM, first compound 0.00999 µM) of 54.9%. It also gave a viability, T/C [9] of 32.5%, a viability, T/C (second compound 3.16 µM, first compound 0.0999 µM) of 8.3% and a viability, T/C [10] of 2.04%. For the same molecule, the viability, T/C (second compound 10 µM, first compound 0.000999 µM) was 81.3%, the viability, T/C (second compound 10 µM, first compound 0.00316 µM) was 71.1% and the viability, T/C (second compound 10 µM, first compound 0.00999 µM) was 59.7%. For the same molecule, the viability, T/C [11] was 19.4%, the viability, T/C (second compound 10 µM, first compound 0.0999 µM) was 7.8% and the viability, T/C [12] was 1.03%.
`COc1cccc2c1C(=O)c1c(O)c3c(c(O)c1C2=O)CC(O)(C(=O)CO)CC3OC1CC(N)C(O)C(C)O1` (centres undefined) + Cc1cnc(CNC(=O)c2c(=O)c3ccc(N4CCCN(C)CC4)nc3n3c2sc2ccccc23)cn1 was tested, and the IC50 (second compound 0.0316 µM) was over 10000 nM, the IC50 (second compound 0.1 µM) was over 10000 nM and the IC50 (second compound 0.316 µM) was 8330 nM. It also gave an IC50 (second compound 1 µM) of 7330 nM, an IC50 (second compound 3.16 µM) of 5890 nM and an IC50 (second compound 10 µM) of 6250 nM. It also gave a viability, T/C [1] of 112%, a viability, T/C (second compound 0.0316 µM, first compound 0.1 µM) of 74.6% and a viability, T/C [2] of 97.5%. It also gave a viability, T/C (second compound 0.0316 µM, first compound 1 µM) of 93.6%, a viability, T/C (second compound 0.0316 µM, first compound 3.16 µM) of 80% and a viability, T/C (second compound 0.0316 µM, first compound 10 µM) of 52.8%. It also gave a viability, T/C [3] of 107%, a viability, T/C (second compound 0.1 µM, first compound 0.1 µM) of 76.5% and a viability, T/C [4] of 94%. For the same molecule, the viability, T/C (second compound 0.1 µM, first compound 1 µM) was 90.8%, the viability, T/C (second compound 0.1 µM, first compound 3.16 µM) was 86.5% and the viability, T/C (second compound 0.1 µM, first compound 10 µM) was 55.2%. The viability, T/C [5] was 82.3%, the viability, T/C (second compound 0.316 µM, first compound 0.1 µM) was 90.4% and the viability, T/C [6] was 115%. The viability, T/C (second compound 0.316 µM, first compound 1 µM) was 98.5%, the viability, T/C (second compound 0.316 µM, first compound 3.16 µM) was 87% and the viability, T/C (second compound 0.316 µM, first compound 10 µM) was 42.5%. For the same molecule, the viability, T/C [7] was 91.5%, the viability, T/C (second compound 1 µM, first compound 0.1 µM) was 68.4% and the viability, T/C [8] was 116%. It also gave a viability, T/C (second compound 1 µM, first compound 1 µM) of 106%, a viability, T/C (second compound 1 µM, first compound 3.16 µM) of 88% and a viability, T/C (second compound 1 µM, first compound 10 µM) of 36%. The viability, T/C [9] was 69.7%, the viability, T/C (second compound 3.16 µM, first compound 0.1 µM) was 81.3% and the viability, T/C [10] was 78%. For the same molecule, the viability, T/C (second compound 3.16 µM, first compound 1 µM) was 103%, the viability, T/C (second compound 3.16 µM, first compound 3.16 µM) was 93.4% and the viability, T/C (second compound 3.16 µM, first compound 10 µM) was 20.1%. The viability, T/C [11] was 75.8%, the viability, T/C (second compound 10 µM, first compound 0.1 µM) was 77.4% and the viability, T/C [12] was 109%. The viability, T/C (second compound 10 µM, first compound 1 µM) was 91.9%, the viability, T/C (second compound 10 µM, first compound 3.16 µM) was 93.2% and the viability, T/C (second compound 10 µM, first compound 10 µM) was 22.7%.
